Measurements published in paper PMC11589570, “Critical assessment of LC3/GABARAP ligands used for degrader development and ligandability of LC3/GABARAP binding pockets” (Nature Communications, 2024).
Values joined by “and” are separate entries in the source; they are usually repeats but may differ in a detail not shown here. Equal values may be shown once.

Legend:
Assay in all cases: FP assay with Cy5-labelled p62 LIR tracer (protein titration and tracer displacement)
[1] = molecular target: GABARAP (Homo sapiens, UniProt O95166); format: binding; settings: log10 concentration [M] -8.08092; two replicate columns per compound
Sequence of GABARAP (O95166 1-116): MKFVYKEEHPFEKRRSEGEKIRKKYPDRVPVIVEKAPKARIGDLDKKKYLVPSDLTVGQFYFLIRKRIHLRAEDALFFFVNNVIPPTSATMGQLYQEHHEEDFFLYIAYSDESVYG

[2] = molecular target: GABARAPL2 (Homo sapiens, UniProt P60520); settings: for normalized FP signal, p62 LIR tracer displacement: GABARAPL2
Sequence of GABARAPL2 (P60520 whole entry): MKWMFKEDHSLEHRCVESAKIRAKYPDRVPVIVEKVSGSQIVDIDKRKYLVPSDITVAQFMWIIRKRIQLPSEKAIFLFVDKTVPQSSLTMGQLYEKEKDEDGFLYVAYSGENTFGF

[3] = molecular target: GABARAPL1 (Homo sapiens, UniProt Q9H0R8); format: binding; settings: for compound titration GABARAPL1 (displacement curve, FP signal): two replicate columns per compound; for FP tracer displacement curve signal (compound titration): duplicate values
Sequence of GABARAPL1 (Q9H0R8 whole entry): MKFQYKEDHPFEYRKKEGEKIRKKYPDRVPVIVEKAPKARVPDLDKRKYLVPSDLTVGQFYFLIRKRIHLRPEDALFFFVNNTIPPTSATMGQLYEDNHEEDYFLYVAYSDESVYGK

[4] = molecular target: LC3C (Homo sapiens, UniProt Q9BXW4); format: binding; settings: for compound titration LC3C (displacement curve, FP signal): two replicate columns per compound
Sequence of LC3C (Q9BXW4 1-126): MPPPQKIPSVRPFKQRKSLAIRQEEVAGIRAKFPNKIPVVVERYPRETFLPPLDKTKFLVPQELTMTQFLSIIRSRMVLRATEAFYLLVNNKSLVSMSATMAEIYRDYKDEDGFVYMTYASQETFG

[5] = log10 concentration [M] -3.82391
[6] = log10 concentration [M] -4.1549
[7] = log10 concentration [M] -4.60206
[8] = log10 concentration [M] -5.30103
[9] = log10 concentration [M] -5.69897
[10] = log10 concentration [M] -6.22185
[11] = log10 concentration [M] -6.69897
[12] = log10 concentration [M] -7.30103
[13] = log10 concentration [M] -7.79588
[14] = log10 concentration [M] -8.08092

Compound: CO[C@@H]1[C@@H](OC(N)=O)[C@@H](O)[C@H](Oc2ccc3c(O)c(NC(=O)c4ccc(O)c(CC=C(C)C)c4)c(=O)oc3c2C)OC1(C)C [compound 12, Novobiocin]
- compound titration GABARAP (displacement curve, FP signal) [1]: 86.7241 and 92.2414
- Ki [2]: 681 µM
- normalized FP signal, p62 LIR tracer displacement [2, 5]: 88.8 and 79.6
- normalized FP signal, p62 LIR tracer displacement [2, 6]: 90.4 and 93.6
- normalized FP signal, p62 LIR tracer displacement [2, 7]: 94.8 and 107.2
- normalized FP signal, p62 LIR tracer displacement ([2]; log10 concentration [M] -5): 97.2 and 105.2
- normalized FP signal, p62 LIR tracer displacement [2, 8]: 95.6 and 104.8
- normalized FP signal, p62 LIR tracer displacement [2, 9]: 86.4 and 89.6
- normalized FP signal, p62 LIR tracer displacement [2, 10]: 100.4 and 99.2
- normalized FP signal, p62 LIR tracer displacement [2, 11]: 102 and 95.6
- normalized FP signal, p62 LIR tracer displacement [2, 12]: 100.8 and 96.8
- normalized FP signal, p62 LIR tracer displacement [2, 13]: 100 and 94.8
- normalized FP signal, p62 LIR tracer displacement [2, 14]: 102.4 and 106.8
- Ki ([3]; FP, p62 LIR-based tracer, GABARAPL1): 66.2 µM
- normalized FP signal, p62 LIR tracer displacement ([3]; GABARAPL1, log10 concentration [M] -3.82391): 56.4286 and 54
- normalized FP signal, p62 LIR tracer displacement ([3]; GABARAPL1, log10 concentration [M] -4.1549): 66.8571 and 68.4286
- normalized FP signal, p62 LIR tracer displacement ([3]; GABARAPL1, log10 concentration [M] -4.60206): 83.8571 and 84.7143
- normalized FP signal, p62 LIR tracer displacement ([3]; GABARAPL1, log10 concentration [M] -5): 91.2857 and 89.4286
- normalized FP signal, p62 LIR tracer displacement ([3]; GABARAPL1, log10 concentration [M] -5.30103): 92.4286 and 94.8571
- normalized FP signal, p62 LIR tracer displacement ([3]; GABARAPL1, log10 concentration [M] -5.69897): 90 and 96
- normalized FP signal, p62 LIR tracer displacement ([3]; GABARAPL1, log10 concentration [M] -6.22185): 93.7143 and 95.7143
- normalized FP signal, p62 LIR tracer displacement ([3]; GABARAPL1, log10 concentration [M] -6.69897): 100.143 and 97.8571
- normalized FP signal, p62 LIR tracer displacement ([3]; GABARAPL1, log10 concentration [M] -7.30103): 98.4286 and 98.8571
- normalized FP signal, p62 LIR tracer displacement ([3]; GABARAPL1, log10 concentration [M] -7.79588): 94.4286 and 92.2857
- normalized FP signal, p62 LIR tracer displacement ([3]; GABARAPL1, log10 concentration [M] -8.08092): 93.8571 and 98.4286
- compound titration GABARAPL1 (displacement curve, FP signal) [3, 5]: 56.4286 and 54
- compound titration GABARAPL1 (displacement curve, FP signal) [3, 6]: 66.8571 and 68.4286
- compound titration GABARAPL1 (displacement curve, FP signal) [3, 7]: 83.8571 and 84.7143
- compound titration GABARAPL1 (displacement curve, FP signal) ([3]; log10 concentration [M] -5): 91.2857 and 89.4286
- FP tracer displacement curve signal (compound titration) [3, 9]: 90 and 96
- FP tracer displacement curve signal (compound titration) [3, 10]: 93.7143 and 95.7143
- FP tracer displacement curve signal (compound titration) [3, 11]: 100.143 and 97.8571
- FP tracer displacement curve signal (compound titration) [3, 12]: 98.4286 and 98.8571
- FP tracer displacement curve signal (compound titration) [3, 13]: 94.4286 and 92.2857
- FP tracer displacement curve signal (compound titration) [3, 14]: 93.8571 and 98.4286
- Ki ([4]; FP, p62 LIR-based tracer, LC3C): 172 µM
- normalized FP signal, p62 LIR tracer displacement ([4]; LC3C, log10 concentration [M] -3.82391): 67.8 and 62.8
- normalized FP signal, p62 LIR tracer displacement ([4]; LC3C, log10 concentration [M] -4.1549): 76.2 and 80.2
- normalized FP signal, p62 LIR tracer displacement ([4]; LC3C, log10 concentration [M] -4.60206): 85.4 and 91.6
- normalized FP signal, p62 LIR tracer displacement ([4]; LC3C, log10 concentration [M] -5): 91 and 93
- normalized FP signal, p62 LIR tracer displacement ([4]; LC3C, log10 concentration [M] -5.30103): 89.4 and 92.6
- normalized FP signal, p62 LIR tracer displacement ([4]; LC3C, log10 concentration [M] -5.69897): 84.2 and 84.8
- normalized FP signal, p62 LIR tracer displacement ([4]; LC3C, log10 concentration [M] -6.22185): 92.6 and 89
- normalized FP signal, p62 LIR tracer displacement ([4]; LC3C, log10 concentration [M] -6.69897): 89.2 and 92.2
- normalized FP signal, p62 LIR tracer displacement ([4]; LC3C, log10 concentration [M] -7.30103): 89.8 and 92.6
- normalized FP signal, p62 LIR tracer displacement ([4]; LC3C, log10 concentration [M] -7.79588): 86 and 89.6
- normalized FP signal, p62 LIR tracer displacement ([4]; LC3C, log10 concentration [M] -8.08092): 86.2 and 93.6
- compound titration LC3C (displacement curve, FP signal) [4, 5]: 67.8 and 62.8
- compound titration LC3C (displacement curve, FP signal) [4, 6]: 76.2 and 80.2
- compound titration LC3C (displacement curve, FP signal) [4, 7]: 85.4 and 91.6
- compound titration LC3C (displacement curve, FP signal) ([4]; log10 concentration [M] -5): 91 and 93
- compound titration LC3C (displacement curve, FP signal) [4, 8]: 89.4 and 92.6
- compound titration LC3C (displacement curve, FP signal) [4, 9]: 84.2 and 84.8
- compound titration LC3C (displacement curve, FP signal) [4, 10]: 92.6 and 89
- compound titration LC3C (displacement curve, FP signal) [4, 11]: 89.2 and 92.2
- compound titration LC3C (displacement curve, FP signal) [4, 12]: 89.8 and 92.6
- compound titration LC3C (displacement curve, FP signal) [4, 13]: 86 and 89.6
- compound titration LC3C (displacement curve, FP signal) [4, 14]: 86.2 and 93.6
